Source: US9834754B2, “Populations of hematopoietic progenitors and methods of enriching stem cells therefor” (University Health Network, priority 2011, dated 2017)

Legend:
[1] = tested on: H1 hESCs differentiated as embryoid bodies (EBs); experiment: Flow cytometric analysis of surface markers on hESC-derived EBs; format: cell-based, human
Procedure: The hESC line H1 (Thomson et al., 1998) and the reprogrammed human iPS cell line (MSC-iPS1; (Park et al., 2008)) were used in this study. They were maintained on irradiated mouse embryonic fibroblasts in hESC media as described previously (Kennedy et al., 2007). Prior to differentiation, the cells were feeder-depleted by culturing on matrigel (BD Biosciences, Bedford, Mass.) in hESC media for 24 to 48 hours. To generate EBs, hPSCs were treated with collagenase B (1 mg/ml; Roche, Indianapolis, Ind.) for 20 minutes followed by a short trypsin-EDTA (0.05%) step. Cells were gently scraped with a cell scraper to form small aggregates (10-20 cells). Aggregates were resuspended in StemPro-34 (Invitrogen), supplemented with penicillin/streptomycin (10 ng/mL), L-glutamine (2 mM), ascorbic acid (1 mM), monothioglycerol (MTG, 4×10^-4M; Sigma), and transferrin (150 μg/mL). BMP-4 (10 ng/mL), bFGF (5 ng/mL), Activin A, 6 μM SB-431542, VEGF (15 ng/mL), Dkk (150 ng/mL), IL-6 (10 ng/mL), IGF-1 (25 ng/mL), IL-11 (5 ng/mL), SCF (50 ng/mL), EPO (2 U/mL final), TPO (30 ng/mL), IL-3 (30 ng/mL) and Flt-3L (10 ng/mL) were added as indicated. Cultures were maintained in a 5% CO2/5% O2/90% N2 environment for the first 8 days and then transferred to a 5% CO2/air environment. All recombinant factors are human and were purchased from R&D Systems (Minneapolis, Minn.). The following antibodies were used for these studies: CD3-APC (clone UCHT1), CD4-APC-EFluor750 (clone RPA-T4), CD5-PE-Cy7 (clone L17F12), CD7-FITC (clone M-[…]), CD8-eFluor-650 NC (clone RPA-T8), CD31-FITC (clone WM59), CD33-FITC (clone HIM 3-4), CD34-APC (clone 8G12), CD34-PE-CY7 (clone 4H11), CD41-APC (clone HIP8), […]10), CD45-APC-eFluor750 (clone 2D1) or CD45-PacificBlue (clone H130), CD56-PE-Cy7 (clone B159), CD90-APC (clone 5E10), CD117-APC (clone 104D2), CD144-PE (clone 123413), KDR-PE (clone 89106), TCRγδ-FITC (clone 11F2), TCRαβ-PE (clone T10B9.1A-31). Stained cells were analyzed using an LSRII (BD Biosciences) flow cytometer at the indicated time points. Data analysis was performed using FlowJo software. For T lymphoid studies, analyses were carried out by gating on live cells and lack of 6-Diamidino-2-phenylindole (DAPI) uptake, followed by gating on cells expressing CD45. All antibodies were purchased from BD Biosciences (San Diego, Calif.) with the following exceptions: CD8 eFluor-650 NC and CD34-PE-CY7 were purchased from eBioscience (San Diego, Calif.) and KDR was purchased from R&D systems. Cells were sorted with […] (BD) cell sorter at the Sick Kids/UHN Flow Cytometry Facility.

[2] = tested on: CD34+ population isolated from EBs; experiment: RT-qPCR expression analysis of CD34+ fractions from day 9 EBs; format: cell-based, human; settings: FIG. 4E
Procedure: Total RNA was prepared with the RNAqueous RNA Isolation Kit (Ambion) and treated with RNase-free DNase (Qiagen). 100 ng to 1 ug RNA was transcribed into cDNA using random hexamers and Oligo (dT) with Superscript III Reverse Transcriptase (Invitrogen). Real-time quantitative PCR was performed on a MasterCycler EP RealPlex (Eppendorf). All experiments were carried out in triplicate using SYBR Green JumpStart Taq ReadyMix (Sigma). The oligonucleotide sequences are available upon request. Gene expression was evaluated as DeltaCt relative to control (ACTB).

[3] = tested on: day 9 CD34+ progenitors; experiment: OP9-DL4 co-culture for T-lineage differentiation; format: cell-based, human; settings: cultured on OP9-DL4 cells; FIG. 5A
Procedure: OP9 cells retrovirally-transduced to express Delta-like 4 (OP9-DL4) were generated and maintained in α-MEM medium supplemented with penicillin/streptomycin and 20% FBS (OP9 media) as previously described (La Motte-Mohs et al., 2005; Schmitt et al., 2004). 5-10×10^4 sorted human EB-derived subsets were added to individual wells of a 6-well plate containing OP9-DL4 cells, and cultured in OP9-media supplemented with rhFlt-3L (5 ng/mL) and rhIL-7 (5 ng/mL), (Peprotech, Rocky Hill, N.J.). rhSCF (100 ng/mL) was added for the first 8 days only, Every five days co-cultures were transferred onto fresh OP9-DL4 cells by vigorous pipetting and passaging through a 40 μm cell strainer to remove stromal cells.

[4] = tested on: other pathways or kinases including BMP4, ERK, JNK or p38 MAPK; settings: Inman, 2002; cited from earlier work
[5] = inhibition between days 2 and 4, FIG. 4C

## NC(=O)c1ccc(-c2nc(-c3ccc4c(c3)OCO4)c(-c3ccccn3)[nH]2)cc1 [SB-431542]
[1]; SB added at day 3 of differentiation, FIG. 9
  CD43+ population at day 9 when SB addition delayed until day 3: development of some CD43^+ cells
[1]; SB added between days 2 and 4 of differentiation
  development of KDR+ and CD34+ populations: developed normally
[1]; SB added within the first 24 hours of differentiation, FIG. 4A
  induction of KDR+CD34+ hematopoietic mesoderm population at day 5 of differentiation: completely blocked
[1]; [5]
  development of the CD43+ population in day 9 EBs: completely blocked
  effect on CD34+ cells in day 9 EBs: did not appear to impact
[1]; inhibitor added between days 1 and 2 of differentiation
  development of KDR+ cells (mesoderm formation): prevented the development of any KDR^+ cells
[2]
  expression of LMO2, GATA1, GATA2 and HOXB4 versus Activin A-induced population: comparable
  expression of SOX17 and AML1C in CD34+ population versus Activin A-induced CD34+CD43− population: higher levels
[3]
  T cell generation from SB-treated day 9 CD34+ progenitors: generated T cells
[4]
  inhibition of other pathways or kinases including BMP4, ERK, JNK or p38 MAPK: no observed inhibition
